Assay results taken from ChEMBL document CHEMBL1201862, “PubChem BioAssay data set” (2004).
Calls of active or inactive are those of the source.

What was measured:
[1] = biological target: ADP-ribosylation factor GTPase-activating protein 1 (Rattus norvegicus, UniProt Q62848); test: Fluorescence polarization-based biochemical high throughput dose response screening assay to identify inhibitors of ADP-ribosylation factor GTPase activating protein 1 (ARFGAP1).; assay type: functional
[2] = biological target: T1, Corticotropin-releasing factor receptor 2/Corticotropin-releasing factor-binding protein (Homo sapiens, UniProt P24387+Q13324); test: Dose Response confirmation of uHTS hits for small molecule antagonists of the CRF-binding protein and CRF-R2 receptor complex.; assay type: functional; conditions: read-out: IC50_Mean
T1 sequence (Q13324 whole entry): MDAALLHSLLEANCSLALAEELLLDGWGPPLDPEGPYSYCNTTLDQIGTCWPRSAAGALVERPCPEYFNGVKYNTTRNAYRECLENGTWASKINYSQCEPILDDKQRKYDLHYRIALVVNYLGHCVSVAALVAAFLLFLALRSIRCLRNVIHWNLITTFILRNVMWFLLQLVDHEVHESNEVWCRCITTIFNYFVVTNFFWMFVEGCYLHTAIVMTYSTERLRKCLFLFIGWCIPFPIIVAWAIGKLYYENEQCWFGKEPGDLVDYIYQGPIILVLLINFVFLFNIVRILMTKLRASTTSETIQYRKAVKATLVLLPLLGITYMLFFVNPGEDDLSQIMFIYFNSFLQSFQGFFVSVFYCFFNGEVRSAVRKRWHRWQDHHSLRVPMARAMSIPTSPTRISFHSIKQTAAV
T1 sequence (P24387 whole entry): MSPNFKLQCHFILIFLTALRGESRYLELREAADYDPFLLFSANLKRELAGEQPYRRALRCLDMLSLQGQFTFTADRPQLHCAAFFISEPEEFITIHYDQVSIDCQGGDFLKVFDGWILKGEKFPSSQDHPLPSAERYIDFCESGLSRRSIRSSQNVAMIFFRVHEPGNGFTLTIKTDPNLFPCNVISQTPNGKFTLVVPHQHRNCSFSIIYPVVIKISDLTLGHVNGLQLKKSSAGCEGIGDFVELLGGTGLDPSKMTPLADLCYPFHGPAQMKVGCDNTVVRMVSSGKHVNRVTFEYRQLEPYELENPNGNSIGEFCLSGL

[3] = biological target: T1, Corticotropin-releasing factor receptor 2/Corticotropin-releasing factor-binding protein; test: activators of CRF receptor 2 with binding protein – uHTS hits, confirmation (AID 602473); assay type: functional; conditions: read-out: EC50_Mean
[4] = CRF-BP/CRF-R2 complex antagonists, dose response, cell-based, uHTS hits, 384-well (AID 651639); assay type: functional, Homo sapiens; conditions: read-out: IC50_Mean
[5] = biological target: T2, Sentrin-specific protease 1 (Homo sapiens, UniProt Q9P0U3); test: potency of human SENP1 inhibitors, dose response, biochemical, kinetic FRET (AID 651697); assay type: functional; conditions: read-out: IC50_Mean
T2 sequence (Q9P0U3 whole entry): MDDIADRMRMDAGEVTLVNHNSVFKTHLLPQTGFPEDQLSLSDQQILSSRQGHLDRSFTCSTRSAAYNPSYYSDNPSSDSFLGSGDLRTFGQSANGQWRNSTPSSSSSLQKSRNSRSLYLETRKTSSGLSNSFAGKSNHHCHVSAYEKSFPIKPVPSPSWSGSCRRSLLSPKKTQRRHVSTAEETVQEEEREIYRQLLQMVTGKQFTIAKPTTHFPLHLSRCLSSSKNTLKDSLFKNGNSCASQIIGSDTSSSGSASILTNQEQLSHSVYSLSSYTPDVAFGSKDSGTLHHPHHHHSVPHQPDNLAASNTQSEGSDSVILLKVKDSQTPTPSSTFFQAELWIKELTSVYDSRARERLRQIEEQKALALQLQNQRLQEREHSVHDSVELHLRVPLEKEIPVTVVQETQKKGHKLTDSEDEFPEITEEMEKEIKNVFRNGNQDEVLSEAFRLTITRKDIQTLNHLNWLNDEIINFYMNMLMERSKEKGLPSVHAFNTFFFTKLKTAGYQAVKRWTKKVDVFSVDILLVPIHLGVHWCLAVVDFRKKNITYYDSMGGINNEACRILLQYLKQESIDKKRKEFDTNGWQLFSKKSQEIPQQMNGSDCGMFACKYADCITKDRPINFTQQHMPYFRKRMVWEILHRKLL

[6] = biological target: T2, Sentrin-specific protease 1; test: Dose response confirmation of small molecule inhibitors of the catalytic domain of the SUMO protease, SENP1 in a FRET assay.; assay type: functional; conditions: read-out: IC50_Mean
Interleukin-8 = biological target: T3, Interleukin-8 (Homo sapiens, UniProt P10145); test: Dose Response confirmation of uHTS small molecule hits for cystic fibrosis induced NFkb Inhibitors in a PAF-induced IL8 counterscreen.; assay type: functional; conditions: read-out: IC50_Mean
T3 sequence (P10145 whole entry): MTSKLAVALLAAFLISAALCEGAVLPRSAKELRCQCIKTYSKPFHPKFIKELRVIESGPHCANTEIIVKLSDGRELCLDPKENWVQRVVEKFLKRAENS

ADP-ribosylation factor GTPase-activating protein 1, sequence (Q62848 whole entry): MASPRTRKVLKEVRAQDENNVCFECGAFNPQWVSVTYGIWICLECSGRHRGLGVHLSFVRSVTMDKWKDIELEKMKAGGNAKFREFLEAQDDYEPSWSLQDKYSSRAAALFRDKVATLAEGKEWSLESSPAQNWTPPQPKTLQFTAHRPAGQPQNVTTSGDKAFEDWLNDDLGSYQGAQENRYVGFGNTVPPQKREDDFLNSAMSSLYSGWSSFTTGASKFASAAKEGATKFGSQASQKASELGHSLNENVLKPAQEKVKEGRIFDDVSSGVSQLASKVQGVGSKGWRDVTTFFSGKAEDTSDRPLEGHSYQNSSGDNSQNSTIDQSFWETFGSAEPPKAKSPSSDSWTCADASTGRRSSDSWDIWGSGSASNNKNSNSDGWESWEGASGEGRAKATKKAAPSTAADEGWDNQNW

SMILES | IC50 [2] | EC50 [3] | IC50 [4] | other results
O=C(Cn1c2ccc(F)cc2c2nc3n(c(=O)c21)CCS3)Nc1ccccc1C(F)(F)F |  |  |  | IC50 [1]: 50.1 µM (inactive)
CCc1ccc(-c2cc(C)no2)cc1S(=O)(=O)Nc1ccc(Cl)cn1 | 27.5 µM (active) | > 53 µM (inactive) | > 20 µM (inactive) | 
Cc1cccc(CSc2ccc3nnc(-c4cccs4)n3n2)c1 | 32.2 µM (active) | > 53 µM (inactive) | 2.57 µM (active) | 
CCOC(=O)c1c(O)nc2ccc(Cl)c3c2c1-c1ccccc1C3=O |  |  |  | IC50 [5]: 18.3 µM (active); IC50 [6]: 2.75 µM (active)
COCCNc1nc(Oc2cncc(Cl)c2)c2sccc2n1 |  |  |  | IC50 (Interleukin-8): 29.2 µM (inactive)
